Source: ChEMBL document CHEMBL5614423, “Proximal fleximer analogues of 2'-deoxy-2'-fluoro-2'-methyl purine nucleos(t)ides: Synthesis and preliminary pharmacokinetic and antiviral evaluation” (Bioorg Med Chem, 2024)
The source made the active and inactive calls. The rule behind the calls is not given here.

Key:
[1] = test system: Nipah virus; assay: Antiviral activity against Nipah virus upto 100 uM; assay type: functional, organism-based; details: Henipavirus nipahense
[2] = test system: Chikungunya virus; assay: Antiviral activity against Chikungunya virus upto 100 uM; assay type: functional, organism-based
[3] = test system: dengue virus type 2; assay: Antiviral activity against Dengue virus 2 upto 100 uM; assay type: functional, organism-based
[4] = test system: Middle East respiratory syndrome-related coronavirus; assay: Antiviral activity against MERS CoV upto 100 uM; assay type: functional, organism-based
[5] = test system: Human alphaherpesvirus 1; assay: Antiviral activity against HSV 1 upto 150 uM; assay type: functional, organism-based
[6] = test system: Cytomegalovirus; assay: Antiviral activity against Cytomegalovirus upto 150 uM; assay type: functional, organism-based
[7] = test system: Human gammaherpesvirus 4; assay: Antiviral activity against Epstein Barr virus upto 150 uM; assay type: functional, organism-based
[8] = test system: Zaire ebolavirus; assay: Antiviral activity against Zaire Ebola virus; assay type: functional, organism-based
[9] = test system: Zaire ebolavirus; assay: Antiviral activity against Zaire Ebola virus upto 100 uM; assay type: functional, organism-based
[10] = Toxicity in CD-1 mouse assessed as occurence of adverse event at 100 to 300 mg/kg, ip for 3 days; assay type: organism-based; details: in vivo, 72 h, dose 100-300 mg/kg, time 3 day
[11] = Toxicity in CD-1 mouse assessed as drug tolerance at 100 to 300 mg/kg, ip for 3 days; assay type: organism-based; details: in vivo, 72 h, dose 100-300 mg/kg, time 3 day
[12] = Half life in CD-1 mouse at 100 mg/kg by MS analysis; assay type: ADME, organism-based; details: in vivo
[13] = AUC in CD-1 mouse at 100 mg/kg measured for 24 hrs by MS analysis; assay type: ADME, organism-based; details: in vivo

| Structure (SMILES) | Activity [1] | Activity [2] | Activity [3] | Activity [4] | Activity [5] | Activity [6] | Activity [7] | EC50 [8] [µM] | Activity [9] | Activity [10] | Activity [11] | half-life [12] [min] | AUC [13] [mg·h/L] |
| --- | --- | --- | --- | --- | --- | --- | --- | --- | --- | --- | --- | --- | --- |
| CNc1nc(N)ncc1-c1cn([C@@H]2O[C@H](CO[P@@](=O)(N[C@@H](C)C(=O)OC(C)C)Oc3ccccc3)[C@@H](O)[C@@]2(C)F)cn1 | inactive | inactive | inactive | inactive | inactive | inactive | inactive | 30 | – | – | – | – | – |
| CNc1nc(N)ncc1-c1cn([C@@H]2O[C@H](CO)[C@@H](O)[C@@]2(C)F)cn1 | inactive | inactive | inactive | inactive | inactive | inactive | inactive | – | inactive | Non-Toxic | Non-Toxic | 60 | 36 |
